# Measurements published in PMC6268071, “α-Glucosidase Inhibitory Constituents from Acanthopanax senticosus Harm Leaves” (Molecules, 2012).
# Where two headings read alike, the source gives them in different places.
# Target: α-Glucosidase (EC.3.2.1.20) from Saccharomyces sp.
# Assay: α-Glucosidase inhibition assay
# Type: biochemical
# Protocol: Open column chromatography was carried out using silica gel (200–300 mesh, Qingdao Marine Chemical Co., Qingdao, China) or octadecyl silica gel (ODS, 25–40 μm, Fuji, Tokyo, Japan) as stationary phases. TLC employed precoated silica gel plates (5–7 μm, Qingdao Marine Chemical Co., Qingdao, China). Preparative HPLC was carried out on a Waters 600 instument equipped with a Waters RID-2414 detector. A Waters Sunfire prep C18 OBD (19 × 250 mm i.d.; Milford, PA, USA) column was used for preparative purposes. The IR spectra were recorded as KBr pellets on a Jasco 302-A spectrometer. Optical rotation was recorded on a Jasco P-2000 polarimeter. HRESIMS were measured on a FTMS-7 instrument (Bruker Daltonics, Karlsruhe, Germany). Melting points were determined on a Gallenkemp apparatus and are uncorrected. The ^1H-, ^13C- and 2D (^1H-^1H COSY, HSQC, HMBC, NOESY) NMR spectra were recorded on a Bruker AMX-400 spectrometer using standard pulse sequences. Chemical shifts are reported in ppm (δ), and scalar coupling are reported in Hz. GC analyses were carried out using a Fuli 9790 instrument, DM-5 column (0.25 μm, 30 m × 0.25 mm, Dikma, Beijing, China). α-Glucosidase (EC.3.2.1.20) from Saccharomyces sp. was purchased from Wako Pure Chemical Indutries Ltd. (Wako 076-02841; Osaka, Japan).
# The α-glucosidase (EC.3.2.1.20) enzyme inhibition assay has been performed according to the literature. α-Glucosidase (25 μL, 0.2 U/mL), various concentrations of samples (25 μL), and 67 mM phosphate buffer (pH 6.8, 175 μL) were mixed at room temperature for 10 min. Reactions were initiated by the addition of 23.2 mM p-nitrophenyl-α-D-glucopyranoside (25 μL). The reaction mixtures were incubated at 37 °C for 15 min in a final volume of 250 μL, and then 1 M Na2CO3 (50 μL) was added to the incubation solution to stop the reaction. The activities of glucosidase were detected in a 96-well plate, and the absorbance was read at 405 nm by a microplate spectrophotometer (Spectra Max, Molecular Devices, Sunnyvale, CA, USA). The negative control was prepared by adding phosphate buffer instead of the sample in the same way as the test. […] The blank was prepared by adding phosphate buffer instead of α-glucosidase using the same method. The inhibition rates (%) were calculated from the formula: […]
# [1] = in vitro α-glucosidase inhibitory assay, substrate p-nitrophenyl-α-D-glucopyranoside, pH 6.8, 37 °C, value ± SEM, read-out: IC50 (μM ± SEM)
# [2] = read-out: α-glucosidase inhibitory activity IC50
IC50 [1] [µM],IC50 [2] [µM],Compound,α-glucosidase inhibition activity (in words) (qualitative statement)
> 1000,,"COC(=O)[C@H]1O[C@@H](O[C@H]2CC[C@@]3(C)C(CC[C@]4(C)C3CC=C3C5CC(C)(C)CC[C@]5(C(=O)O)CC[C@]34C)C2(C)C)[C@H](O)[C@@H](O)[C@@H]1O (stereo partly drawn) [Compound 2, 3-O-(β-D-glucuronopyranosyl-6-O-methyl ester)-olean-12-ene-28-olic acid]",
186 ± 12,820,"Oc1ccc([C@H]2Oc3cc(O)cc(O)c3C[C@@H]2O)cc1 [Compound 6, (+)-afzelechin]",significant α-glucosidase inhibition activity
> 1000,,"O=C(O)c1cc2c([nH]c3ccccc32)c(-c2ccc(CO)o2)n1 [Compound 8, 3-carboxylperlolyrine]",
> 1000,,"OCc1ccc(-c2nccc3c2[nH]c2ccccc23)o1 [Compound 7, perlolyrine]",
> 1000,,"COC(=O)CC1C(=O)Nc2ccc(OC)cc21 (stereo not drawn) [Compound 5, 5-methoxy-2-oxoindolin-3-acetic acid methyl ester]",
908 ± 67.3,186,"COC(=O)[C@H]1O[C@@H](O[C@H]2CC[C@@]3(C)C(CC[C@]4(C)C3CC=C3C5CC(C)(C)CC[C@]5(C(=O)O)CC[C@]34C)C2(C)C)[C@H](O[C@@H]2O[C@@H](C)[C@H](O)[C@@H](O)[C@H]2O)[C@@H](O)[C@@H]1O (stereo partly drawn) [Compound 1, 3-O-[(α-L-rhamnopyranosyl)(1→2)]-[β-D-glucuronopyranosyl-6-O-methyl ester]-olean-12-ene-28-olic acid]",

Compound,IC50 [1] [µM],IC50 [2] [µM],α-glucosidase inhibition activity (in words) (qualitative statement)
"C=C(C)[C@@H]1CC[C@]2(C(=O)O[C@@H]3O[C@H](CO[C@@H]4O[C@H](CO)[C@@H](O[C@@H]5O[C@@H](C)[C@H](O)[C@@H](O)[C@H]5O)[C@H](O)[C@H]4O)[C@@H](O)[C@H](O)[C@H]3O)CC[C@]3(C)[C@H](C[C@H]4OC(=O)C[C@@H](O)[C@]5(C)[C@@H]4[C@@]3(C)CC[C@H]5C(=C)C)[C@@H]12 [Compound 3, chiisanoside]",> 1000,,
"C=C(C)[C@@H]1C[C@H](O)[C@]2(C(=O)O[C@@H]3O[C@H](CO[C@@H]4O[C@H](CO)[C@@H](O[C@@H]5O[C@@H](C)[C@H](O)[C@@H](O)[C@H]5O)[C@H](O)[C@H]4O)[C@@H](O)[C@H](O)[C@H]3O)CC[C@]3(C)[C@H](C[C@H]4OC(=O)C[C@@H](O)[C@]5(C)[C@@H]4[C@@]3(C)CC[C@H]5C(=C)C)[C@@H]12 [Compound 4, 22α-hydroxychiisanoside]",820 ± 91.6,908,
